In test [1] the test system is E. coli. Kind of test: Fluctuation assay of mutation rate with sub-inhibitory antibiotic doses. Format: cell-based, Escherichia coli. From the text:
The effect of sub-inhibitory doses of antibiotics of different classes on mutation rate was investigated using both MDS and detailed fluctuation assays as performed in Garibyan, L. et al. (2003). DNA Repair. 2(5):593-608; and Lang, G. I.; et al. (2008). Genetics 178(1):67-82.

In test [2] the test system is MG1655 E. coli (rpoB and mrcA regions of interest). Kind of test: Maximum-Depth Sequencing (MDS) of mutation rates in E. coli grown with sub-inhibitory antibiotic doses. Format: cell-based, Escherichia coli. The settings on record: for rate of transition mutations in rpoB: wild-type MG1655, aerobic, 1 μL/mL ampicillin or 15 ng/mL norfloxacin. As for the experimental part:
E. coli were streaked onto Luria-Bertani (LB) Agar from freezer stocks and grown at 30° C. for 24 hours. According to plating and colony-forming unit (CFU) counting, the average number of cells in such colonies is 3×10^8 (thus the number of generations is […]. Bacteria from a single colony were used to inoculate a small liquid culture (1 ml LB broth in a round-bottom tube). For the purposes of generation counting, it is assumed that after the transition to growing in liquid, growth occurs for only ˜3 generations, since the number of bacteria in the colony is roughly equal to the carrying capacity of the broth. The culture was grown for 12 hours on a 37° C. shaker.
4 μL (˜10^7 bacteria) were transferred to a fresh 100 mL LB liquid culture (in a 250 mL Erlenmeyer flask). Liquid cultures were grown for 24 hours on a 37° C. shaker, to a density of 2.5×10^9 bacteria according to cell counts (for a total of 2.5×10^11 bacteria). This process was performed 9 times. The average number of generations a bacterium would have grown in each liquid culture is
Four biological replicates of each condition were grown. All liquid cultures, including the small founding culture, had the possible addition of 1 μL/mL ampicillin or 15 ng/mL norfloxacin. […] The fact that most of the “interrelatedness” between bacteria sampled at the end of the culture is important for the way mutation rate is calculated.
MG1655 E. coli were used as wild-type cells for all experiments. The tet-regulated mrcA strain MG1655(CmR::Ptet-mrcA SpR::tetR) was prepared according to Lutz, R.; Bujard, H. (1997) Independent and tight regulation of transcriptional units in Escherichia coli via the LacR/O and the TetR/O and AraC/I1-I2 regulatory elements. Nucleic Acids Research. 25(6):1203-10. […] PNAS 111(20):E2100-E2109, doi: 10.1073/pnas.1201876111. Mutant strains were induced with anhydrous tetracycline at 50 ng/ml. In the mutS knockout strain, MG1655 mutS was replaced with a kanamycin resistance cassette.
0. Restriction digest. a. Incubate 1 μg DNA in 50 μL 1× restriction enzyme buffer with the appropriate amount of restriction enzyme. For this study, 1 unit XmnI was used. Samples were incubated at 37° C. overnight. b. Deactivate restriction enzyme. For XmnI, samples were heated at 65° C. for 20 minutes. 1. 1 cycle PCR with adapter-barcode-primer a. Prepare 50 μL PCR reaction mix using adapter-barcode-primer and 12.5 μL of the sample above (250 ng DNA) b. PCR, 1 cycle: 98° C. 1 min, 60° C. 15 sec, 72° C. 1 min 2. Remove unused barcodes a. Immediately add 1 μL exonuclease I+5 μL buffer. b. Incubate at 37° C. for 1 hr, then 80° C. for 20 min c. Clean sample using PCR purification kit 3. Linear amplification using forward adapter amplifier primers a. Add cleaned DNA to fresh 50 μL reaction mix with forward adapter amplifier primer. b. PCR, 12 cycles: 98° C. 15 sec, 61° C. 15 sec, 72° C. 5 sec Note: The number of linear amplification cycles is limited by off-target amplification.
a. Add adapter-reverse-primer and reverse adapter amplifier primers. b. PCR, 15 cycles: 98° C. 15 sec, 61° C. 15 sec, 72° C. 5 sec 5. Purify with Ampure XP beads Optional: If using multiple samples with phased barcodes, combine DNA first in equimolar concentrations. For this study, quantification at this step was done using TapeStation. 6. Sequence. HiSeq Rapid Run, 150 bp, Paired-End.
After grouping by barcode, sequences were aligned using the forward and reverse [primer] sequences for mrcA and rpoB above. Samples were indexed according to phase. Consensus bases, including indels, are called only when all bases at a given position and barcode have 100% agreement.
Mutation rates in the assay are chosen to maximize the likelihood of recovering the mean mutant frequency for substitutions of a given type X->Y, which occur a Poisson process over a certain number of generations (in this case 113). […]

SMILES strings stand for the structures.

Regarding `CCn1cc(C(=O)O)c(=O)c2cc(F)c(N3CCNCC3)cc21` [norfloxacin], the “transition substitution rate in rpoB, fluctuation assays” value in test [1] is reported as “this increase was only seen in cells that were grown to stationary phase”. In addition, in test [2] (MDS, 15 ng/mL norfloxacin), the “rate of >1 bp indel formation in both mrcA and rpoB” value is “increased the rate of >1 bp indel formation in both mrcA and rpoB”. Moreover, the “rate of transition mutations in rpoB” value in test [2] (MDS) is “increased the transition substitution rate in rpoB”.
Consider `CC1(C)S[C@@H]2[C@H](NC(=O)[C@H](N)c3ccccc3)C(=O)N2[C@H]1C(=O)O` [ampicillin], for which the “mutation rate in cells overexpressing catalase” value in test [2] (MDS, catalase overexpression mutant, lower basal rate) is listed as “did not increase this lower rate”. The “transversions and indel formation in mrcA” value in test [2] (MDS, mrcA) is “increased transversions and indel formation in mrcA”. Moreover, in test [2] (MDS), the “rate of transition mutations in rpoB” value is “increase in the rate of transition mutations in rpoB”. Also, the “transition rate, anaerobic conditions” value in test [2] (cells grown in anaerobic conditions) is “did not display an increase in transition rate”.

The values above are taken from patent US20170016062A1, “SEQUENCING METHODS AND KITS” (NEW YORK UNIVERSITY, priority 2015, published 2017).
